# Patent publication US11369565B2, “Amino-pyrimidine skeletal muscle modulators” (Cytokinetics, Inc., priority 2010, dated 2022)
# Tested on: rabbit skeletal myofibrils (approximately 90% fast fibers)
# Test: Activation of fast skeletal myofibrils (PUMA coupled-enzyme ATPase assay at pCa25)
# Assay type: biochemical
# Details: concentration at which the compound increased the enzymatic activity by 40%; calcium at pCa25; PM12 buffer pH 6.8
# Protocol: Preparation of fast skeletal myofibrils. Rabbit skeletal myofibrils were prepared based upon the method of Herrmann et al. (Biochem. 32(28):7255-7263(1993). Myofibrils were prepared from rabbit psoas muscle purchased from Pel-Freez Biologicals (Arkansas) within 2 days of ordering, stored on ice. Minced muscle was homogenized in 10 volumes of ice-cold “standard” buffer (50 mM Tris, pH 7.4, 0.1 M potassium acetate, 5 mM KCl, 2 mM DTT, 0.2 mM PMSF, 10 μM leupeptin, 5 μM pepstatin, and 0.5 mM sodium azide) containing 5 mM EDTA and 0.5% Triton X-100 using an Omni-Macro homogenizer. Myofibrils were recovered by low speed centrifugation (3000 rpm for 10 minutes) and washed 2 times in the Triton X-100 containing buffer to ensure removal of cellular membrane. Following the Triton washes, myofibrils were washed 3 times in “standard” buffer containing 2 mM magnesium acetate. A final wash in assay buffer (12 mM PIPES, pH 6.8, 60 mM KCl, 1 mM DTT) was performed and brought to 10% sucrose for flash freezing in liquid nitrogen and storage at −80° C.
# Activation of Fast Skeletal Myofibrils. Fast fiber activators were identified by measuring the enzymatic activity of muscle myofibril preparations using the proprietary PUMA™ (see, e.g., U.S. Pat. Nos. 6,410,254, 6,743,599, 7,202,051, and 7,378,254) assay system. Myofibril preparations consisted of rabbit skeletal muscle (approximately 90% fast fibers) that had been mechanically homogenized and washed with a detergent (triton X-100) to remove cellular membranes. This preparation retained all of the sarcomeric components in a native conformation and the enzymatic activity was still regulated by calcium. Compounds were tested using a myofibril suspension and a level of calcium sufficient to increase enzymatic activity of the myofibrils to 25% of their maximal rate (termed pCa25). Enzymatic activity was tracked via a pyruvate kinase and lactate dehydrogenase-coupled enzyme system. This assay regenerates myosin-produced ADP into ATP by oxidizing NADH, producing an absorbance change at 340 nm. The buffering system was 12 mM Pipes, 2 mM MgCl2, 1 mM DTT at pH 6.8 (PM12 buffer).
row,Compound,Mean AC1.4
1,CC(C)(Nc1ncc(-c2cc(C(N)=O)ccc2F)cn1)c1ncccc1Cl [3-(2-{[1-(3-chloro(2-pyridyl))-isopropyl]amino}pyrimidin-5-yl)-4-fluorobenzamide],A (A=<1 uM)
2,Fc1ccccc1-c1cnc(NC[C@]2(c3ncccc3F)C[C@H](F)C2)nc1 [{[3-fluoro-1-(3-fluoro(2-pyridyl))cyclobutyl]methyl}[5-(2-fluorophenyl)pyrimidin-2-yl]amine],A (A=<1 uM)
3,Oc1ncc(-c2cnc(NC[C@]3(c4ncccc4F)C[C@H](F)C3)nc2)cn1 [5-[2-({[3-fluoro-1-(3-fluoro(2-pyridyl))cyclobutyl]methyl}amino)pyrimidin-5-yl]pyrimidin-2-ol],D (D=>20 uM)
4,"NC(=O)c1cc2cnc(NCC3(c4ncccc4F)CCC3)nc2s1 [2-({[(3-fluoro-2-pyridyl)cyclobutyl]methyl}amino) thiopheno[2,3-d]pyrimidine-6-carboxamide]",C (C=10-20 uM)
5,CSc1ccccc1C(C)(C)Nc1ncc(-c2cccc(C(N)=O)c2)cn1 [3-(2-{[1-methyl-1-(2-methylthiophenyl)ethyl]amino}pyrimidin-5-yl)benzamide],A (A=<1 uM)
6,COc1ncc(-c2cnc(NC[C@]3(c4ncccc4F)C[C@H](F)C3)nc2)cn1 [{[3-fluoro-1-(3-fluoro(2-pyridyl))cyclobutyl]methyl} [5-(2-methoxypyrimidin-5-yl)pyrimidin-2-yl]amine],D (D=>20 uM)
7,CC(C)(C)OC(=O)NCCC(=O)NCc1cnn(-c2cnc(NC(C)(C)c3ncccc3Cl)nc2)c1 [3-[(tert-butoxy)carbonylamino]-N-{[1-(2-{[1-(3-chloro(2-pyridyl))-isopropyl]amino}pyrimidin-5-yl)pyrazol-4-yl)]methyl}propanamide],D (D=>20 uM)
8,NC(=O)c1ccc(F)c(-c2cnc(NC3(c4ccc(F)cc4)CCC3)nc2)c1 [4-fluoro-3-(2-{[(4-fluorophenyl)cyclobutyl]amino}pyrimidin-5-yl)benzamide],A (A=<1 uM)
9,CC(C)(Nc1ncc(-c2nccc(C(N)=O)n2)cn1)c1ncccc1F [2-(2-{[1-(3-fluoro(2-pyridyl))-isopropyl]amino}pyrimidin-5-yl)pyrimidine-4-carboxamide],D (D=>20 uM)
10,"N#Cc1cnc(-c2cnc(NCC3(c4ncccc4F)CCC3)nc2)s1 [2-[2-({[(3-fluoro-2-pyridyl)cyclobutyl]methyl}amino)pyrimidin-5-yl]-1,3-thiazole-5-carbonitrile]",C (C=10-20 uM)
11,CC(C)(CNc1ncc(-c2cccc(C(N)=O)c2)cn1)c1ncccc1F [3-(2-{[2-(3-fluoro(2-pyridyl))-2-methylpropyl]amino}pyrimidin-5-yl)benzamide],B (B=1-10 uM)
12,CS(=O)(=O)N1CC(NC(=O)c2cccc(-c3cnc(NC[C@]4(c5ncccc5F)C[C@H](F)C4)nc3)c2)C1 [{3-[2-({[3-fluoro-1-(3-fluoro(2-pyridyl))cyclobutyl]methyl}amino)pyrimidin-5-yl]phenyl}-N-[1-(methylsulfonyl)azetidin-3-yl]carboxamide],B (B=1-10 uM)
13,COc1ncc(-c2cnc(NC(C)(C)c3ncccc3Cl)nc2)cc1C(N)=O [5-(2-{[1-(3-chloro(2-pyridyl))-isopropyl]amino}pyrimidin-5-yl)-2-methoxypyridine-3-carboxamide],B (B=1-10 uM)
14,NC(=O)c1ccnc(NC2(c3ccc(F)cc3)CCC2)n1 [2-{[(4-fluorophenyl)cyclobutyl]amino} pyrimidine-4-carboxamide],C (C=10-20 uM)
15,"CC(C)(Nc1ncc(-c2cn3cc(C(=O)O)ccc3n2)cn1)c1ncccc1Cl [2-(2-{[1-(3-chloro(2-pyridyl))-isopropyl]amino}pyrimidin-5-yl)-4-hydroimidazo[1,2-a]pyridine-6-carboxylic acid]",D (D=>20 uM)
16,"CCOC(=O)c1noc(-c2cnc(NC(C)(C)c3ncccc3Cl)nc2)n1 [ethyl 5-(2-{[1-(3-chloro(2-pyridyl))-isopropyl]amino}pyrimidin-5-yl)-1,2,4-oxadiazole-3-carboxylate]",D (D=>20 uM)

row,Compound,Mean AC1.4
1,CC(C)(CNc1ncc(-c2cncc(C#N)c2)cn1)c1ccc(F)cc1 [5-(2-{[2-(4-fluorophenyl)-2-methylpropyl]amino}pyrimidin-5-yl)pyridine-3-carbonitrile],B (B=1-10 uM)
2,Fc1cccnc1[C@]1(CNc2ncccn2)C[C@@H](F)C1 [{[3-fluoro-1-(3-fluoro(2-pyridyl))cyclobutyl]methyl}pyrimidin-2-ylamine],D (D=>20 uM)
3,Oc1ncccc1-c1cnc(NC[C@]2(c3ncccc3F)C[C@H](F)C2)nc1 [3-[2-({[3-fluoro-1-(3-fluoro(2-pyridyl))cyclobutyl]methyl}amino)pyrimidin-5-yl]pyridin-2-ol],C (C=10-20 uM)
4,O=C(O)c1cccc(-c2cnc(NC[C@]3(c4ncccc4F)C[C@H](F)C3)nc2O)c1 [3-[2-({[3-fluoro-1-(3-fluoro(2-pyridyl))cyclobutyl]methyl}amino)-4-hydroxypyrimidin-5-yl] benzoic acid],D (D=>20 uM)
5,"NC(=O)c1cnc(-c2cnc(NCC3(c4ncccc4F)CCC3)nc2)s1 [2-[2-({[(3-fluoro-2-pyridyl)cyclobutyl]methyl}amino)pyrimidin-5-yl]-1,3-thiazole-5-carboxamide]",A (A=<1 uM)
6,"CC(C)(Nc1ncc(-c2nc(CC(N)=O)cs2)cn1)c1ncccc1F [2-[2-(2-{[1-(3-fluoro(2-pyridyl))-isopropyl]amino}pyrimidin-5-yl)-1,3-thiazol-4-yl]acetamide]",D (D=>20 uM)
7,"CC(=O)NCc1cnc(-c2cnc(NC(C)(C)c3ncccc3F)nc2)s1 [N-{[2-(2-{[1-(3-fluoro(2-pyridyl))-isopropyl]amino}pyrimidin-5-yl)-1,3-thiazol-5-yl]methyl}acetamide]",D (D=>20 uM)
8,COC(=O)CNC(=O)c1cnc(NCC2(c3ncccc3F)CCC2)nc1 [methyl 2-{[2-({[(3-fluoro-2-pyridyl)cyclobutyl]methyl}amino)pyrimidin-5-yl]carbonylamino} acetate],D (D=>20 uM)
9,CC(=O)Nc1n[nH]c2ccc(-c3cnc(NC(C)(C)c4ncccc4Cl)nc3)cc12 [N-[5-(2-{[1-(3-chloro(2-pyridyl))-isopropyl]amina}pyrimidin-5-yl)-1H-indazol-3-yl]acetamide],B (B=1-10 uM)
10,"CC(C)(Nc1ncc(-c2cn3cc(C(N)=O)sc3n2)cn1)c1ncccc1Cl [6-(2-{[1-(3-chloro(2-pyridyl))-isopropyl}amino}pyrimidin-5-yl) imidazo[2,1-b]1,3-thiazoline-2-carboxamide]",D (D=>20 uM)
11,CC(C)(Nc1ncc(-n2cc(C(N)=O)cn2)cn1)c1ncccc1F [1-(2-{[1-(3-fluoro(2-pyridyl))-isopropyl]amino}pyrimidin-5-yl)pyrazole-4-carboxamide],D (D=>20 uM)
12,NC(=O)c1cccc(-c2cnc(NCC3(c4ncccc4F)CCC3)nc2)c1 [3-[2-({[(3-fluoro-2-pyridyl)cyclobutyl]methyl}amino)pyrimidin-5-yl]benzamide],A (A=<1 uM)
13,CNC(=O)c1ccnc(-c2cnc(NC[C@]3(c4ncccc4F)C[C@H](F)C3)nc2)n1 [{2-[2-({[3-fluoro-1-(3-fluoro(2-pyridyl))cyclobutyl]methyl}amino)pyrimidin-5-yl]pyrimidin-4-yl}-N-methylcarboxamide],B (B=1-10 uM)
14,"CC(C)(Nc1ncc(-c2cnc3cc[nH]c3c2)cn1)c1ncccc1Cl [[1-(3-chloro(2-pyridyl))-isopropyl](5-pyrrolo[3,2-b]pyridin-6-ylpyrimidin-2-yl)amine]",A (A=<1 uM)
15,"CC(C)(C)OC(=O)NCc1cnc(-c2cnc(NCC3(c4ncccc4Cl)CCC3)nc2)s1 [(tert-butoxy)-N-({2-[2-({[(3-chloro(2-pyridyl))cyclobutyl]methyl}amino)pyrimidin-5-yl](1,3-thiazol-5-yl)}methyl)carboxamide]",A (A=<1 uM)
16,"CC(C)(Nc1ncc(-c2nc(CNC(=O)[C@@H]3CCCN3)cs2)cn1)c1ncccc1F [((2S)pyrrolidin-2-yl)-N-{[2-(2-{[1-(3-fluoro(2-pyridyl))-isopropyl]amino}pyrimidin-5-yl)(1,3-thiazol-4-yl)]methyl}carboxamide]",D (D=>20 uM)
